Key:
[1] = system: E. coli-sta enterotoxin induced diarrhoea; set-up: species or system NMRI mice; settings: mouse, in vivo
[2] = system: E. coli-sta enterotoxin induced diarrhoea; set-up: species or system NMRI mice; settings: mouse, in vivo; remark: listed apart in the source
[3] = system: heartburn in patients suffering from endoscopic negative GORD; settings: in vivo
[4] = system: intestinal system's proteolytic capacity and disacaridase potential; settings: cited from earlier work

| Molecule | frequency of defecation [1] | reduction in stool weight [1] | mean number of stools passed [2] | net stool weight [2] | Reported side-effects: Bloatedness [3] | Reported side-effects: Constipation [3] | Reported side-effects: Nausea [3] | Reported side-effects: No side-effects [3] | Reported side-effects: Sleeplessness [3] | intestinal system's proteolytic capacity and disacaridase potential [4] |
| --- | --- | --- | --- | --- | --- | --- | --- | --- | --- | --- |
| CN(C)C(=O)C(CCN1CCC(O)(c2ccc(Cl)cc2)CC1)(c1ccccc1)c1ccccc1 [loperamide] | significantly reduced (P<0.05) | significant (P<0.05) | reduction | reduction | – | – | – | – | – | – |
| clinoptilolite | – | – | – | – | 3/10 | 2/10 | 1/10 | 4/10 | 1/10 | not modified |
